Test results from ChEMBL document CHEMBL1201862, “PubChem BioAssay data set” (2004).
Activity calls are given as the source filed them.

What was measured:
[1] = HEp-2 cell cytotoxicity, dose response, cytotoxicity control for RSV inhibitor project, HTS (AID 2410); format: functional; details: human respiratory syncytial virus
Paired box protein Pax-8 = Paired box protein Pax-8 (Homo sapiens, UniProt Q06710); experiment: inhibitors of PAX8-driven TPO luciferase reporter, dose response, RMG-I cells, cherry-pick (AID 687027); format: functional, cell-based;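 also: luciferase reporter driven by Pax8 target thyroperoxidase promoter measured by SteadyGlo luminescence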
Cytochrome P450 2C19 = Cytochrome P450 2C19 (Homo sapiens, UniProt P33261); experiment: Cytochrome panel assay with activity outcomes. Panel member name: p450-cyp2c19 Compounds with AC50 equal or less than 10 uM are considered active; format: functional
Cytochrome P450 2D6 = Cytochrome P450 2D6 (Homo sapiens, UniProt P10635);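 also: CYP2D6 member of a cytochrome P450 panel assay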
Cytochrome P450 2C9 = Cytochrome P450 2C9 (Homo sapiens, UniProt P11712)
H4 = experiment: Luminescence Cell-Based Dose Response HTS to Identify Activators of 5'UTR Stem-Loop Driven Prion Protein mRNA Translation in H4 Neuroglioblastoma Cells. [Related pubchem assays: 1829 (Project Summary), 1814 (Primary HTS)]; format: functional; details: Homo sapiens
cells = format: functional
[2] = molecular target: T1, Heat shock factor protein 1 (Mus musculus, UniProt P38532); experiment: inhibition of MG132-induced HSE-luciferase signal, confirmation, cell-based, NIH3T3, luminescence, dose retest (AID 2382); format: functional;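 also: NIH3T3 fibroblasts with HSF1-driven luciferase reporter stressed by proteasome inhibitor MG132; luminescence from HSF1-driven luciferase expression after 8 hours of MG132 stress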
T1 sequence (P38532 whole entry): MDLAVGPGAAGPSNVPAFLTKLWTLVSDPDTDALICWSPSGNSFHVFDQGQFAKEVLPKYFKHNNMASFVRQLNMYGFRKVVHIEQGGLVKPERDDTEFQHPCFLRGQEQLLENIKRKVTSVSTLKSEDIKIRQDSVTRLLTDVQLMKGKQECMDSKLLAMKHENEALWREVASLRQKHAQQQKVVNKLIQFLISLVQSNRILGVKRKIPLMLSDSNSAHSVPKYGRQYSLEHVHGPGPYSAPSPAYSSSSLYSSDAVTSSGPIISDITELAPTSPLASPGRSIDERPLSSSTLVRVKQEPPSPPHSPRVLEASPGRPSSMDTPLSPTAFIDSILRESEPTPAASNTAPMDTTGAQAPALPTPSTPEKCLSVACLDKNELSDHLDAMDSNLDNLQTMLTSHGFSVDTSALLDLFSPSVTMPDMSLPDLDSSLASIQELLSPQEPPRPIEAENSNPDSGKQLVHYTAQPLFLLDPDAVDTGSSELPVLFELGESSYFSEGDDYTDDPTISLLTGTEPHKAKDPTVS

[3] = Luminescence Cell-Based Dose Response HTS to Identify Activators of Luciferase Translation or Activity in H4 […] Cells. [Related pubchem assays: 1829 (Project Summary), 1814 (Primary HTS)]; format: functional
[4] = Luminescence Cell-Based Dose Response HTS to Identify Inhibitors of 5'UTR Stem-Loop Driven Prion Protein mRNA Translation in H4 Neuroglioblastoma Cells. [Related pubchem assays: 1827 (Project Summary), 1813 (Primary HTS)]; format: functional
[5] = inhibitors of SNCA 5'UTR-driven reporter translation, confirmation, H4 neuroglioma cells, luminescence (AID 1988); format: functional, cell-based
[6] = inhibitors of firefly luciferase expression or activity, dose response, H4 neuroglioma cells, luminescence (AID 1990); format: functional, cell-based
[7] = NIH-3T3 fibroblast cytotoxicity, dose response, cytotoxicity control, cell-based, fluorescence, Alamar Blue, secondary assay (AID 2327); format: functional;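 also: NIH-3T3 mouse fibroblasts cultured with fluconazole at 8 µg/mL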
[8] = inhibitors of intracellular T. cruzi replication, confirmation, NIH3T3 host cells, beta-gal luminescence (AID 2044); format: functional, cell-based;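 also: intracellular parasites grown in NIH/3T3 mouse fibroblasts as host cells; luminescent beta-galactosidase reporter signal from transgenic T. cruzi replicating inside host cells; inhibitors lower the luminescence signal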
[9] = growth suppression of beta-catenin-knockout colon cells, dose response, cell-based, HCT116, human colon tumor (AID 1045); format: functional;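 also: HCT116 colon tumor cells with beta catenin knocked out; cells exposed to compound for 60 hours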
[10] = cytotoxicity toward NIH3T3 fibroblasts, dose response, counter-screen, cell-based, ATP luminescence, mouse fibroblasts (AID 2010); format: functional;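 also: cells exposed to compound for about 90 hours before reading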
[11] = growth suppression of PTEN-null colon cells, dose response, cell-based, HCT116 PTEN knockout (AID 1047); format: functional;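 also: HCT116 colon tumor cells with PTEN knocked out; cells exposed to compound for 60 hours before readout; potency for loss of cell viability measured by luminescence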
[12] = molecular target: T2, Corticotropin-releasing factor receptor 2/Corticotropin-releasing factor-binding protein (Homo sapiens, UniProt P24387+Q13324); experiment: activators of CRF receptor 2 with binding protein – uHTS hits, confirmation (AID 602473); format: functional; details: read-out: EC50_Mean
T2 sequence (Q13324 whole entry): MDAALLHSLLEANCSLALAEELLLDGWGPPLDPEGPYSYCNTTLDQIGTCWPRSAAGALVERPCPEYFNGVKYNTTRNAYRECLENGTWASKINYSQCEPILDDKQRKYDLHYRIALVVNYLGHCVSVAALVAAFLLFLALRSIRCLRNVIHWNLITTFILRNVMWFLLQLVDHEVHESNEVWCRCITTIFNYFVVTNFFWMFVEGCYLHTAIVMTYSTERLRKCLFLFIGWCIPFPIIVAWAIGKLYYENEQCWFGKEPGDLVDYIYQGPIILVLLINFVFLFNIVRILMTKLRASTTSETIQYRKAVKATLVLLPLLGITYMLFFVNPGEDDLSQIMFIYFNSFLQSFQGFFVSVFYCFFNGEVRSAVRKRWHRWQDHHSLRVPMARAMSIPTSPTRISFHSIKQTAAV
T2 sequence (P24387 whole entry): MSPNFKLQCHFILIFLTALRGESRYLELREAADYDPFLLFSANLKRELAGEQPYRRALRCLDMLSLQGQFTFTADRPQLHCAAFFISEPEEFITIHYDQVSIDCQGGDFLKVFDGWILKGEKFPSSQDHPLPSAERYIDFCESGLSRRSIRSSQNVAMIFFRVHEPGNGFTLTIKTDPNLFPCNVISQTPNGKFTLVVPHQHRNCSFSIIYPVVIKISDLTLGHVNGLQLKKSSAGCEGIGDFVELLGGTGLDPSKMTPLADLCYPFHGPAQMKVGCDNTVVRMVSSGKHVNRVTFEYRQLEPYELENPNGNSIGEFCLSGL

[13] = molecular target: T2, Corticotropin-releasing factor receptor 2/Corticotropin-releasing factor-binding protein; experiment: Dose Response confirmation of uHTS hits for small molecule antagonists of the CRF-binding protein and CRF-R2 receptor complex.; format: functional; details: read-out: IC50_Mean

Chain of Cytochrome P450 2D6 (P10635 whole entry): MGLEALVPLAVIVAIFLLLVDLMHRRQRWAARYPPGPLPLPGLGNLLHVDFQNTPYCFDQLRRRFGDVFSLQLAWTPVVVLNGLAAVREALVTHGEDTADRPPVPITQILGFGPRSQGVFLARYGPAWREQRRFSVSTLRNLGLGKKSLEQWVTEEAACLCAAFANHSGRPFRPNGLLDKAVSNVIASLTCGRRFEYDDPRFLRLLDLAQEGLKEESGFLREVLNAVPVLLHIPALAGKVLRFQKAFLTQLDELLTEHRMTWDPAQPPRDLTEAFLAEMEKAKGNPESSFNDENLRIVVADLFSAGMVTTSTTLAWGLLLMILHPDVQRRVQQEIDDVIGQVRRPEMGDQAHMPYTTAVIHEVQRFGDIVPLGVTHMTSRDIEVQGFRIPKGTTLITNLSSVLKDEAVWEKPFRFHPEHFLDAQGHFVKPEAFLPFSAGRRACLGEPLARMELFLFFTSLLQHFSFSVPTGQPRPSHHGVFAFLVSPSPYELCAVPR
Chain of Cytochrome P450 2C9 (P11712 whole entry): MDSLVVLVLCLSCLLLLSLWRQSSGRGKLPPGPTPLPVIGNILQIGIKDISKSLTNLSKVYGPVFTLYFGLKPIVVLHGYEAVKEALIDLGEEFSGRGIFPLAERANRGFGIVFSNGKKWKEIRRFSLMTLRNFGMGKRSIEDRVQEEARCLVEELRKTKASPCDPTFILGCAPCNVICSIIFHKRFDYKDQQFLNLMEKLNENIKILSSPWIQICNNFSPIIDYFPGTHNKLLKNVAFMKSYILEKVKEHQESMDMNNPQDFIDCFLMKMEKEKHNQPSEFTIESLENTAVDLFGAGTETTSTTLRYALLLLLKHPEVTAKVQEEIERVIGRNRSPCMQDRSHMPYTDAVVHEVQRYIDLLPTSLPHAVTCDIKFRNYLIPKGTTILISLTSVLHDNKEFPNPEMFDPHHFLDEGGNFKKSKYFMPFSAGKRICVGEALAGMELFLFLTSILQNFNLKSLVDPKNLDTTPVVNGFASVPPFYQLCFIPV
Chain of Paired box protein Pax-8 (Q06710 whole entry): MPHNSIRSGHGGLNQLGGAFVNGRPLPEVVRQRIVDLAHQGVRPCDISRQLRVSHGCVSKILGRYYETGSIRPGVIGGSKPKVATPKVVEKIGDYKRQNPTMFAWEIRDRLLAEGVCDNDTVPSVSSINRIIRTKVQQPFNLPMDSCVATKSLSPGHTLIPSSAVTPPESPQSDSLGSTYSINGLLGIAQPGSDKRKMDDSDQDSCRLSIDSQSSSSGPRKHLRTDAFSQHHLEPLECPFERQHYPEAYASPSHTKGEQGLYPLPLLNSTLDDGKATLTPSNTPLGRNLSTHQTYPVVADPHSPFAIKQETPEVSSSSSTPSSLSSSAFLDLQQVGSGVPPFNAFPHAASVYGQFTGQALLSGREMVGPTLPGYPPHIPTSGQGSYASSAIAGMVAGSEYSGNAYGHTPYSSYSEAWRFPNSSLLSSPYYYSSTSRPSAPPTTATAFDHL
Chain of Cytochrome P450 2C19 (P33261 whole entry): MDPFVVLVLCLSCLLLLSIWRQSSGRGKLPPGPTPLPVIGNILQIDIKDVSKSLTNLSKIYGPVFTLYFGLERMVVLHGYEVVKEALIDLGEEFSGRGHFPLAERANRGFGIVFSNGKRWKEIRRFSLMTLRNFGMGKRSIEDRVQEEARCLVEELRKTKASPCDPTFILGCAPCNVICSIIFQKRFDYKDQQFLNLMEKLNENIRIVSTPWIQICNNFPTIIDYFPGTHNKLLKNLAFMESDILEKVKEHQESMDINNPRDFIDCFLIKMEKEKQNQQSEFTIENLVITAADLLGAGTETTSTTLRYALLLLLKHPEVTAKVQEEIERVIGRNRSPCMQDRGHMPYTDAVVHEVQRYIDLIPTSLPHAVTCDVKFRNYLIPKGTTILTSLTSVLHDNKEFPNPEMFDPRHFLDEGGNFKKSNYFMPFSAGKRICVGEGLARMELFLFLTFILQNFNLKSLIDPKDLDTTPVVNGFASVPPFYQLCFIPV

COc1c(OC(C)=O)ccc(/C=C/c2ccc3cccc(OC)c3n2)c1[N+](=O)[O-]
CC50 [1]: > 50 µM (active)

COc1ccc2c3c([nH]c2c1)[C@@H](CO)N(C(=O)Nc1cccc(F)c1)CC31CCN(S(=O)(=O)c2cccc(C)c2)CC1
AC50 (Paired box protein Pax-8): 6 µM (active)

COCCCNCC(=O)c1c(N)n(Cc2ccccc2)c(=O)n(C)c1=O
AC50 (Cytochrome P450 2C19; read-out: AC50): 35.5 µM (inconclusive)
AC50 (Cytochrome P450 2D6): 14.1 µM (inconclusive)

CC(C)OC(=O)c1cc2ccccc2oc1=O
AC50 (Cytochrome P450 2C9): 10 µM (inconclusive)

CCOC(=O)c1cnc2ccc(C(=O)OC)cc2c1Nc1ccc(C(=O)O)cc1
AC50 (Paired box protein Pax-8): 66.4 µM (active)

O=C(c1ccncc1)N1CCC2(CCN(Cc3ccccc3)CC2)CC1
AC50 (Cytochrome P450 2C19): inconclusive
AC50 (Cytochrome P450 2D6): 12.6 µM (inconclusive)

CCSc1nc2c(c(-c3ccc(C)o3)c1C#N)CCCC2
CC50 [1]: 37.5 µM (active)

Cc1cc(C(=O)COC(=O)C2=COCCO2)c(C)n1-c1cccc(F)c1
EC50 (H4): 0.887 µM (active)

O=C(OCn1nnc2ccccc2c1=O)c1cccs1
IC50 (cells): 15.6 µM (active)

CC1=CCC2C(=O)N(c3ccc(C)c(Br)c3)C(=O)C2C1 (configuration not stated)
EC50 [2]: > 195 µM (not active)

CCNC(=O)COC(=O)c1cc(-c2ccc(OC)cc2)nc2ccccc12
AC50 (Cytochrome P450 2C9): 2.51 µM (inconclusive)

CC1CCC(NC(=O)c2ccc3c(c2)S(=O)(=O)c2ccccc2C3=O)CC1 (configuration not stated)
CC50 [1]: > 50 µM (active)

Cc1ccc(S(=O)(=O)N2CCC(C(=O)OCc3ccccc3)CC2)cc1C
IC50 (cells): 18.6 µM (active)

CC(C)OC(=O)C(C)Oc1ccc(C(=O)NCCc2ccccc2)cc1 (configuration not stated)
IC50 (cells): 10.3 µM (active)

Cc1ccc(OC(=O)c2cccc([N+](=O)[O-])c2)c(-n2nc3ccccc3n2)c1
EC50 [3]: 0.588 µM (active)

C=CCn1c(COc2ccccc2)nnc1SCC(=O)N/N=C/c1ccc(C)cc1
AC50 (Cytochrome P450 2C19; read-out: AC50): 15.8 µM (inconclusive)
AC50 (Cytochrome P450 2D6): 39.8 µM (inconclusive)

O=S(=O)(/C=C/c1ccccc1)N1CCC(c2nc(O)c3nnn(Cc4ccccc4)c3n2)CC1
CC50 [1]: 27.7 µM (active)

CC1Cc2ccccc2N1C(=O)COC(=O)c1ccc(S(=O)(=O)N(C)C)cc1 (configuration not stated)
EC50 [2]: > 195 µM (not active)

CCCOc1ccc2c3c(c(=O)oc2c1)CCCC3
CC50 [1]: > 50 µM (active)

CCC1(C)Cc2c(sc3nnn(CC(=O)Nc4ccc(C)cc4)c(=O)c23)CO1 (configuration not stated)
AC50 (Cytochrome P450 2D6): 22.4 µM (inconclusive)

COc1cc(C(=O)OC2C[C@H]3CC[C@@H](C2)N3C)ccc1O (some centres not stated)
AC50 (Cytochrome P450 2D6): 7.94 µM (inconclusive)

COc1ccc(O)c(/C=N/NC(=O)c2ccc(N3CCCC3=O)cc2)c1
EC50 [4]: 16.3 µM (active)
EC50 [5]: 12.5 µM (active)
EC50 [6]: 14.8 µM (active)
AC50 (Paired box protein Pax-8): < 0.26 µM (active)
EC50 [7]: > 160 µM (inactive)

Cc1ccc(S(=O)(=O)N(CC(=O)Nc2ccc(Cl)c([N+](=O)[O-])c2)C2CCCCC2)cc1
EC50 [8]: 3.08 µM (active)
EC50 [9]: 19 µM (active)
EC50 [10]: > 60 µM (not active)
EC50 [11]: 16.2 µM (active)

Cn1c(CCN2CCCC2)nc2cc(NS(=O)(=O)c3ccccc3)ccc21
AC50 (Paired box protein Pax-8): 6.61 µM (active)

CCOc1nc(C)ccc1-c1noc(-c2cccnc2)n1
EC50 [2]: > 195 µM (not active)

CC(=O)N(/N=C/c1cccc(C)c1)c1nc(-c2ccc(Br)cc2)cs1
AC50 (Cytochrome P450 2C19; read-out: AC50): 0.0708 µM (inconclusive)
AC50 (Cytochrome P450 2C9): 1.12 µM (inconclusive)

Nc1c(-c2cccs2)cnn1-c1nc(-c2ccc(F)cc2)cs1
AC50 (Cytochrome P450 2C9): 0.158 µM (inconclusive)
EC50 [3]: 0.304 µM (active)

Cc1ccccc1-c1cncnc1N(C)Cc1ccco1
AC50 (Cytochrome P450 2D6): 20 µM (inconclusive)

CCC(C)NC(=O)C1(C)CCC(=O)N1Cc1ccccc1OC (configuration not stated)
EC50 [2]: > 195 µM (not active)

COc1ccc(Oc2ncc3ncc(=O)n(Cc4cccs4)c3n2)cc1
AC50 (Cytochrome P450 2C19; read-out: AC50): 25.1 µM (inconclusive)
AC50 (Cytochrome P450 2D6): 39.8 µM (inconclusive)

CCCCCCC/C=C\CCCCCCCCC(=O)O
AC50 (Cytochrome P450 2C19; read-out: AC50): 39.8 µM (inconclusive)
AC50 (Cytochrome P450 2C9): 39.8 µM (inconclusive)

CCOC(=O)C[C@@H](C(=O)OCC)[C@@H]1CCCCC1=O
AC50 (Cytochrome P450 2D6): 6.31 µM (inconclusive)

COC(=O)c1nn(-c2ccccc2)c(=O)cc1Oc1ccccc1
AC50 (Cytochrome P450 2C9): 11.2 µM (inconclusive)

Cc1cc(Br)c2[nH]cc(CCNC(=O)c3ccco3)c2c1
EC50 [2]: > 195 µM (not active)

COc1ccc(-c2nc(CSCC(=O)NCCC3=CCCCC3)c(C)o2)cc1OC
CC50 [1]: > 50 µM (active)

O=C1CC(N2CC=C(c3ccc(F)cc3)CC2)C(=O)N1c1ccc(F)cc1 (configuration not stated)
EC50 [2]: > 195 µM (not active)

O=S(=O)(c1ccccc1F)N1CC[C@@H]2[C@H](CO)Nc3ccc(C4=CCCCC4)cc3[C@@H]21
AC50 (Paired box protein Pax-8): 28.2 µM (active)

CCn1c2ccccc2c2cc(NC(=O)c3ccco3)ccc21
CC50 [1]: 16.2 µM (active)

C[C@@H]1CN([C@@H](C)CO)C(=O)Cc2cc(NC(=O)Nc3ccc(C(F)(F)F)cc3)ccc2O[C@H]1CN(C)Cc1ccc(Cl)c(Cl)c1
AC50 (Paired box protein Pax-8): 11.1 µM (active)

O=S1(=O)OC(c2ccc(O)cc2)(c2ccc(O)cc2)c2ccccc21 [PHENOLSULFONPHTHALEIN]
AC50 (Cytochrome P450 2C9): 6.31 µM (inconclusive)

COc1cccc(-c2cncnc2NCc2cnc(C)cn2)c1
AC50 (Cytochrome P450 2D6): 15.8 µM (inconclusive)

CC1CCCN(C/C=C/c2ccccc2[N+](=O)[O-])C1 (configuration not stated)
AC50 (Cytochrome P450 2C9): 0.2 µM (inconclusive)

O=C(CNC(=S)N(CCCN1CCOCC1)Cc1cccs1)NCc1ccccc1Cl
EC50 [2]: > 195 µM (not active)

N#C/C(=C(\O)Nc1ccccc1)c1nc2ccccc2[nH]1
IC50 (cells): 2.43 µM (active)

CSCCC(=O)N1CCCC(CNC(=O)c2ccc(-c3ccccc3)cc2)C1 (configuration not stated)
IC50 (cells): 11.6 µM (active)

NC(=O)c1c(NC(=O)c2ccccc2F)sc2c1CCCC2
EC50 [7]: 25.1 µM (active)

Cc1nn(-c2nc3ccccc3s2)c(N)c1Sc1ccc(F)cc1
EC50 [9]: 19.6 µM (active)
EC50 [11]: 15.5 µM (active)

Cc1n[nH]c(=S)n(/N=C/c2cccs2)c1=O
EC50 [12]: > 53 µM (inactive)
IC50 [13]: > 47.1 µM (inactive)

Cc1c(C(=O)Nc2ccc3c(c2)OCCO3)cnn1C
EC50 [2]: 3.49 µM (active)

O=C(/C=C/c1ccc(N2CCCCC2)c([N+](=O)[O-])c1)c1ccc(S(=O)(=O)N2CCCC2)cc1
EC50 [9]: 3.42 µM (active)
EC50 [11]: 4.4 µM (active)

COc1ccccc1C1NC(=O)CCC1[N+](=O)[O-] (configuration not stated)
EC50 [2]: > 195 µM (not active)

O=C(OCc1cc(=O)n2cc(Br)ccc2n1)C1COc2ccccc2O1 (configuration not stated)
EC50 [2]: > 195 µM (not active)

CCSc1nnc(-c2ccccc2NC(C)=O)c(O)n1
AC50 (Cytochrome P450 2C19): inconclusive
AC50 (Cytochrome P450 2C9): 31.6 µM (inconclusive)

Cc1cc(C(C)(C)C)ccc1OCC(=O)N/N=C\c1c(C)n(C)n(-c2ccccc2)c1=O
EC50 [2]: > 195 µM (not active)
